Laboratory results published in US11491245B2, “Gadolinium chelate compounds for use in magnetic resonance imaging” (BAYER PHARMA AKTIENGESELLSCHAFT, priority 2015, dated 2022).
Where two headings read alike, the source gives them in different places.

Columns and labels:
[1] = Pharmacokinetic parameters in rats (blood plasma kinetic); assay type: in vivo, male rats (Han-Wistar); conditions: male rats, 0.1 mmol Gd/kg bolus tail vein, mean
Description: Pharmacokinetic parameters of the compound of Example 3 were determined in male rats (Han-Wistar, 220-230 g, n=3). The compound was administered as a sterile aqueous solution (52.5 mmol Gd/L) as a bolus in the tail vein of the animals. The dose was 0.1 mmol Gd/kg. Blood was sampled 1, 3, 5, 10, 15, 30, 60, 90, 120, 240, 360, 480 and 1440 min post injection and the Gd concentration was determined by Inductively Coupled Plasma Mass Spectroscopy (ICP-MS Agilent 7500a, Waldbronn, Germany). The blood level was converted to plasma concentrations by division by 0.625 (plasma fraction of rat blood, assuming strictly extracellular distribution). As a control, 3 animals were treated in the same way with Gadovist®, a low molecular weight contrast agent.
The fit of the obtained data to a three compartment model (Phoenix—WinNonlin) yielded the pharmacokinetic parameters which are shown in Table 3.

[2] = Whole body imaging (dynamic MRI and tissue Gd concentration); assay type: in vivo, male New Zealand white rabbits; conditions: rabbits, tissues 30 min p.i., FIGS. 8A and 8B
Description: The study was performed with a clinical whole body MRI equipped with body spine coil, abdomen flex coil, neck coil (1.5 T Magnetom Avanto, Siemens Healthcare, Erlangen, Germany). The study was done using male New Zealand white rabbits (weight 2.3-3.0 kg, n=8, Charles River Kisslegg). All animals were initially anesthetized using a body weight-adjusted intramuscular injection of a mixture (1+2) of xylazine hydrochloride (20 mg/mL, Rompun 2%, Bayer Vital GmbH, Leverkusen, Germany) and ketamine hydrochloride (100 mg/mL, Ketavet, Pfizer, Pharmacia GmbH, Berlin, Germany) using 1 mL/kg body weight. The continuous anesthesia of the intubated animals (endotracheal tube, Rueschelit Super Safe Clear, cuff 3.0 mm, Willy Ruesch AG, Kernen, Germany) was achieved by the intravenous injection of 0.9 mg propofol per kilogram per hour (10 mg/mL, Propofol-Lipuro 1%, B. Braun Melsungen AG, Melsungen, Germany). The continuous intravenous injection was performed using a MR infusion system (Continuum MR Infusion System, Medrad Europe B. V., A E Beek, Germany). The tracheal respiration (SV 900C, Maquet, Rastatt, Germany) was performed with 55% oxygen, forty breaths per minute and a breathing volume of 7 mL per kilogram body weight per minute.
Dynamic MRI measurements up to 22 min post injection with subsequent quantitative signal analysis (Siemens Mean Curve software (SYNGO Task Card, Siemens Healthcare, Erlangen, Germany), were performed for three different regions head and neck (brain, tongue, chops muscle, neck muscle), abdomen (spleen, liver, blood) and pelvis (extremity muscle). For the three different slice groups a 3D T1-weighted Vibe sequence was used (TR=4.74 ms, TE=2.38, flip=10°, 1:29 min). The dynamic measurements of the three slice groups (Head/Neck: 1:29 min, Abdomen: 0:49 min, Pelvis: 1:16 min) were done up to 22 min post injection: 1. Head/Neck: baseline, 1.4, 5.2, 8.9, 12.8, 16.5, 20.4 min, 2. Abdomen: baseline, 0.5, 4.3, 8.1, 11.9, 15.7, 19.5 min and 3. Pelvis: baseline, 2.9, 6.7, 10.5, 14.4, 18.1, 22.0 min. At 30 min post injection the animals were sacrificed and the Gd concentrations were measured using Inductively Coupled Plasma Mass Spectroscopy (ICP-MS Agilent 7500a, Waldbronn, Germany) in the following tissue samples: blood, brain, tongue, liver and extremity muscle. A quantitative image evaluation was performed for the 30 min time point p.i. due to the combination of the quantitative ICP-MS Gadolinium concentrations and the MRI region-of-interest analysis.

[3] = 37° C., cited from earlier work
[4] = Gadolinium release after the addition of zinc and phosphate (transmetallation); conditions: phosphate buffer pH 7.00, 2.5 mmol/L gadolinium complex, 2.5 mmol/L ZnCl2, 37° C., up to 72 h, FIG. 2
Description: The technique is based on measurement of the evolution of the water proton paramagnetic longitudinal relaxation rate in phosphate buffer (pH 7.00, 26 mmol/L, KH2PO4 Merck, Hessen, Germany) containing 2.5 mmol/L gadolinium complex and 2.5 mmol/L ZnCl2 Sigma-Aldrich, Munich, Germany). […] The mixture was vigorously stirred, and 300 μL were taken out for the relaxometric study at 0 min, 60 min, 120 min, 3 h, 4 h, 5 h, 24 h, 48 h and 72 h. The measurements were performed on a MiniSpec mq60 spectrometer (Bruker Analytik, Karlsruhe, Germany) at 60 MHz and 37° C.

AUC∞ Area under the curve (to infinity) [1]: 11500 µmol·min/L | MRT Mean residence time [1]: 30.1 min | V1 + V2 Volume, compartments V1 + V2 [1]: 0.25 L/kg | V2 Volume, compartment V2 [1]: 0.12 L/kg | Vc (V1) Volume, central compartment V1 [1]: 0.14 L/kg | Vd,ss Volume of distribution at steady state [1]: 0.28 L/kg | t½ α Half-life, compartment V1 ([1]; three compartment model): 1.6 min | t½ β Half-life, compartment V2 ([1]; three compartment model): 20.5 min | t½ γ Half-life, compartment V3 ([1]; three compartment model): 232 min | stability against transmetallation (relative longitudinal relaxation rate R1p(t)/R1p(0) versus time) [4]: high stability
SMILES: O=C([O-])CN1CCN(CC(=O)[O-])CCN([C@H](CO)[C@H](O)CO)CCN(CC(=O)[O-])CC1.[Gd+3] (racemic) [Reference compound 1, gadobutrol, reference compound]
slope of the linear regression between tissue gadolinium concentration and MRI signal change [2]: 1.0 | r1 human plasma ([3]; reference compounds (marked ^), plasma, 3.0 T, average ± standard deviation): 5.0 ± 0.3 L/mmol/s | r1 water ([3]; reference compounds (marked ^), 3.0 T, average ± standard deviation): 3.2 ± 0.3 L/mmol/s | r1 FBS ([3]; reference compounds, bovine plasma, 1.5 T, from Rohrer et al.): 5.2 L/mmol/s | r1 water ([3]; reference compounds, 1.5 T, from Rohrer et al.): 3.3 L/mmol/s
